Laboratory results reported in ChEMBL document CHEMBL5543122, “Discovery of HC-7366: An Orally Bioavailable and Efficacious GCN2 Kinase Activator” (J Med Chem, 2024).
In brackets after ≈: the same amount, converted by molar mass.

Experiments:
[1] = Oral bioavailability in BALB/c mouse at 3 mg/kg measured upto 24 hrs; assay type: ADME, organism-based; conditions: in vivo
[2] = Antitumor activity against human MOLM16 cells xenografted in BALB/c nude mouse assessed as tumor growth inhibition at 1 mg/kg administered twice a day for 17 days; assay type: functional, MOLM-16; conditions: MOLM16, 408 h, time 17 day, read-out: TGI
HT-1080 = assay: Antitumor activity against human HT-1080 cells xenografted in BALB/c nude mouse assessed as mean tumor growth inhibition at 3 mg/kg administered twice a day for 14 days; assay type: functional; conditions: HT-1080, 336 h, time 14 day, read-out: TGI
[3] = Apparent permeability across apical to basolateral in human Caco-2 cells at 5 uM measured after 120 mins by UPLC-MS/MS analysis
[4] = biological target: Receptor-interacting serine/threonine-protein kinase 3 (Homo sapiens, UniProt Q9Y572); assay: Inhibition of RIPK3 in human MOLM16 cells; assay type: cell-based
[5] = biological target: T1, Serine/threonine-protein kinase Nek1 (Homo sapiens, UniProt Q96PY6); assay: Inhibition of NEK1 in human MOLM16 cells; assay type: cell-based
T1 sequence (Q96PY6 whole entry): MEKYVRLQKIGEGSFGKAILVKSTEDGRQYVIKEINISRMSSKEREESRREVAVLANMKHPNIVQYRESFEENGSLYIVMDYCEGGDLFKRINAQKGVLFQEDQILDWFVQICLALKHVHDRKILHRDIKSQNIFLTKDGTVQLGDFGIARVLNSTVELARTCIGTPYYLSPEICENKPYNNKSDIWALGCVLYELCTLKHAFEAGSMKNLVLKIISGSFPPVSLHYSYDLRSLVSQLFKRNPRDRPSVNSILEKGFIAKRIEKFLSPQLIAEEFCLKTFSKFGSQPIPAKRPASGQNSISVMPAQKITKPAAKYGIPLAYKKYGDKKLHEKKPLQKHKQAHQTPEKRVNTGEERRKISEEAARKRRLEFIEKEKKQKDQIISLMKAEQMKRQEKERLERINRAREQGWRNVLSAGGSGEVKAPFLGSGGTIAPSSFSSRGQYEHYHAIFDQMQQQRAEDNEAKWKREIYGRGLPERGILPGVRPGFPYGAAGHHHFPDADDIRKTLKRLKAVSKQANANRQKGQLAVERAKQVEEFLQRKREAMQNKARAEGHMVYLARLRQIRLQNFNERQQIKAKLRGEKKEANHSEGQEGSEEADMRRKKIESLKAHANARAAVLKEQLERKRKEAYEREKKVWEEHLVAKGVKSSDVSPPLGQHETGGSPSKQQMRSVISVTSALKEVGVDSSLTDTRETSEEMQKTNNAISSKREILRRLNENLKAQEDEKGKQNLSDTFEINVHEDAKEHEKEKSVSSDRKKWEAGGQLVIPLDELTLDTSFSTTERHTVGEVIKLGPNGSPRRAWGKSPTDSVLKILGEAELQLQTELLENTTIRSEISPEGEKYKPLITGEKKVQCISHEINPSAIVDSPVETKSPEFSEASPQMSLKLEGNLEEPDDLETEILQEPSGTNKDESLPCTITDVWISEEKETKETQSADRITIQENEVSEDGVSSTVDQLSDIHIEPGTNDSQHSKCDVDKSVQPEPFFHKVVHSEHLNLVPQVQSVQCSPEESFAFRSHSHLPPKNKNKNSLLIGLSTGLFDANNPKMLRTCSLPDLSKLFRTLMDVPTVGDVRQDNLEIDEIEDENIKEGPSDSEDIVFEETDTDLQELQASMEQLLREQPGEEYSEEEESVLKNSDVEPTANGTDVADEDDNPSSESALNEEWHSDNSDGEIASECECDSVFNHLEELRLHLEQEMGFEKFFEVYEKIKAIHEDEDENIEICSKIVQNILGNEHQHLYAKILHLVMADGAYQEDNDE

[6] = Half-life in BALB/c mouse at 3 mg/kg, po and 1 mg/kg, iv measured upto 24 hrs; assay type: ADME, organism-based; conditions: in vivo
[7] = Volume of distribution at steady state in Sprague-Dawley rat at 1 mg/kg, iv measured upto 24 hrs; assay type: ADME, organism-based; conditions: in vivo, read-out: Vdss
[8] = biological target: Mitogen-activated protein kinase kinase kinase 20 (Homo sapiens, UniProt Q9NYL2); assay: Inhibition of ZAK in human MOLM16 cells; assay type: cell-based
Cytochrome P450 3A4 = Cytochrome P450 3A4 (Homo sapiens, UniProt P08684); assay: Inhibition of CYP3A4 in human liver microsomes using midazolam substrate incubated for 5 mins in presence of NADPH by UPLC-MS/MS analysis
[9] = Antitumor activity against human MOLM16 cells xenografted in BALB/c nude mouse assessed as tumor growth inhibition at 3 mg/kg administered twice a day for 17 days; assay type: functional, MOLM-16; conditions: MOLM16, 408 h, time 17 day, read-out: TGI
[10] = Cmax in BALB/c mouse at 3 mg/kg, po and 1 mg/kg, iv measured upto 24 hrs; assay type: ADME, organism-based; conditions: in vivo
[11] = Unbound volume of distribution at steady state in Sprague-Dawley rat at 1 mg/kg, iv measured upto 24 hrs; assay type: ADME, organism-based; conditions: in vivo
[12] = Toxicity in BALB/c nude mouse xenografted with human HT-1080 cells assessed as change in body weight at 0.3 to 3 mg/kg administered twice a day for 14 days; assay type: organism-based; conditions: in vivo, 336 h, dose 0.3-3 mg/kg, time 14 day
[13] = Unbound fraction in Sprague-Dawley rat plasma at 1 mg/kg, iv measured upto 24 hrs; assay type: ADME, organism-based
physchem = conditions: FaSSIF
Description: Thermodynamic solubility in FaSSIF at 1 mg incubated for 24 hrs by UPLC-MS/MS analysis

Chain of Cytochrome P450 3A4 (P08684 whole entry): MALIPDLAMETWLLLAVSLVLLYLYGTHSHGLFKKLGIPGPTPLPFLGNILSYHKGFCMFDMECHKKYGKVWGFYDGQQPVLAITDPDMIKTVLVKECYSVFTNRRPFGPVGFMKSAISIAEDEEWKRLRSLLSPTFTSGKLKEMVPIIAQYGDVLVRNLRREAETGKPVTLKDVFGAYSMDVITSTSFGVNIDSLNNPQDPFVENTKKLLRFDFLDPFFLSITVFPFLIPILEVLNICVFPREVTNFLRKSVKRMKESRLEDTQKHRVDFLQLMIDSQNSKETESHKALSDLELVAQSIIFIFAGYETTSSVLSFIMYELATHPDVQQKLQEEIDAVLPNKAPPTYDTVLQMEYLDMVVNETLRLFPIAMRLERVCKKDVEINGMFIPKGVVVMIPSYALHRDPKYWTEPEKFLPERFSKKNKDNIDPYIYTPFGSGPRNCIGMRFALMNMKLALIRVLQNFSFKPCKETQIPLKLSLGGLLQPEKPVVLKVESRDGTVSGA
Chain of Mitogen-activated protein kinase kinase kinase 20 (Q9NYL2 whole entry): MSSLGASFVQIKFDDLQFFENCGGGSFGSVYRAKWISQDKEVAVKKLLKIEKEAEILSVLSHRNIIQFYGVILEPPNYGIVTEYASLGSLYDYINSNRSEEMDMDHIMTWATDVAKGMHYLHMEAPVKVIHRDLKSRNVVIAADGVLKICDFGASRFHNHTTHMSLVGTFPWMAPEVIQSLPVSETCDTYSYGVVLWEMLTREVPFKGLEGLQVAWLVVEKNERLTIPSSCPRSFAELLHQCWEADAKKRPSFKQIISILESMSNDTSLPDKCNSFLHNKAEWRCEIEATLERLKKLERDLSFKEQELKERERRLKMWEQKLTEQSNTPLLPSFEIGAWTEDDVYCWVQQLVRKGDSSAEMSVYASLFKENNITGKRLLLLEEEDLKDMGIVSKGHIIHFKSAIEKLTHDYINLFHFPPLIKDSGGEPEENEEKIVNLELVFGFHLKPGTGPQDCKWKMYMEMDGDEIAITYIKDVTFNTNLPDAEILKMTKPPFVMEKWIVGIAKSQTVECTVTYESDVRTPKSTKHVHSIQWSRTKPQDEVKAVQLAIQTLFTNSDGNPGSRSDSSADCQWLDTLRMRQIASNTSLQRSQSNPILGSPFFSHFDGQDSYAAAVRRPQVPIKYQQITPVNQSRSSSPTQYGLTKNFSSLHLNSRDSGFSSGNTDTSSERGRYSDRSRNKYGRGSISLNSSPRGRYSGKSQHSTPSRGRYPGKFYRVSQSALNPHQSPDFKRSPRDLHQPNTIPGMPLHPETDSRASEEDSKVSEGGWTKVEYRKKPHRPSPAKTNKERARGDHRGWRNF
Chain of Receptor-interacting serine/threonine-protein kinase 3 (Q9Y572 whole entry): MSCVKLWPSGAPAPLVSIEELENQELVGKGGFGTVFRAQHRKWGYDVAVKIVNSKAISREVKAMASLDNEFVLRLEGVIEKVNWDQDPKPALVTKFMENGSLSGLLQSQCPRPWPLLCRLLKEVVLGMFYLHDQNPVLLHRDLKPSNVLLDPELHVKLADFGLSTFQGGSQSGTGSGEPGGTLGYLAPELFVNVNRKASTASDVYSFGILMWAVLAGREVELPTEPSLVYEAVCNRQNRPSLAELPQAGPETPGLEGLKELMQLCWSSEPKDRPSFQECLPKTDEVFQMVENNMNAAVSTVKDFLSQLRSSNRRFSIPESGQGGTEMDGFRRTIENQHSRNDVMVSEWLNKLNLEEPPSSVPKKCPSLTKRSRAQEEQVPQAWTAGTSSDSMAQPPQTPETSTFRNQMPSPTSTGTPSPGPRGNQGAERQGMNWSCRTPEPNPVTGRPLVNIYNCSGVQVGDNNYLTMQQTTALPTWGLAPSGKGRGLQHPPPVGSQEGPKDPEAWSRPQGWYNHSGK

`CNC(=O)c1ncn2cc(-c3c(F)ccc(NS(=O)(=O)c4cc(Cl)cnc4OC)c3F)ncc12` showed an F [1] of 66%, an inhibition in vivo at 1 mg/kg [2] of 97% and an inhibition in vivo at 3 mg/kg (HT-1080) of 84%. For the same compound, the Papp A→B at 2 h, 5 µM [3] was 9.7 ×10⁻⁶ cm/s, the IC50 [4] was 9 µM and the IC50 [5] was 9.3 µM. The half-life [6] was 10 h, the Vd [7] was 0.093 L/kg and the IC50 [8] was 0.047 µM. For the same compound, the IC50 (Cytochrome P450 3A4) was 33 µM, the inhibition in vivo at 3 mg/kg [9] was 98% and the Cmax [10] was 26.1 µM. For the same compound, the fVdss [11] was 130 L/kg, the Activity [12] was “Non-Toxic” and the fraction unbound at 24 h [13] was 0.001. The solubility thermodynamic at 24 h (physchem) was 1.8 µM (≈ 0.916 µg/mL).
